Tests used:
502713 = experiment: SRB percentage growth inhibition (NCI protocol); format: cell-based; conditions: Homo sapiens, 48 hrs exposure
Description: (§1) 2-Anilino nicotinyl linked 2-amino benzothiazoles conjugates of formula 4-8 have been tested against ten and eleven human cancer cell lines for 10 and 1 μM respectively derived from nine cancer types (leukemia, non-small cell lung cancer, colon cancer, CNS cancer, melanoma, ovarian cancer, renal cancer, prostate cancer and breast cancer) as per NCI protocol. For each compound, percentage of growth inhibition was calculated for individual cell lines at a minimum of two concentrations (1 and 10 μM). A protocol of 48 hrs continuous drug exposure was used, and a sulforhodamine B (SRB) protein assay was used to estimate cell viability or growth. The percentage of growth inhibition compared with the control was calculated in table 1 and table 2.

A549 = experiment: SRB percentage growth inhibition (NCI protocol); format: cell-based; conditions: Homo sapiens, 48 hrs exposure
Description: as §1

DU145 = experiment: SRB percentage growth inhibition (NCI protocol); format: cell-based; conditions: Homo sapiens, DU-145, 48 hrs exposure
Description: as §1

HCT-15 [1] = experiment: SRB percentage growth inhibition (NCI protocol); format: cell-based; conditions: Homo sapiens, 48 hrs exposure
Description: as §1

HEP-2 = experiment: SRB percentage growth inhibition (NCI protocol); format: cell-based; conditions: Homo sapiens, 48 hrs exposure
Description: as §1

Hela [2] = experiment: SRB percentage growth inhibition (NCI protocol); format: cell-based; conditions: Homo sapiens, 48 hrs exposure
Description: as §1

IGR-OV-1 = experiment: SRB percentage growth inhibition (NCI protocol); format: cell-based; conditions: Homo sapiens, IGROV-1, 48 hrs exposure
Description: as §1

IMR-32 = experiment: SRB percentage growth inhibition (NCI protocol); format: cell-based; conditions: Homo sapiens, 48 hrs exposure
Description: as §1

MCF-7 [3] = experiment: SRB percentage growth inhibition (NCI protocol); format: cell-based; conditions: Homo sapiens, MCF7, 48 hrs exposure
Description: as §1

OVCAR-5 = experiment: SRB percentage growth inhibition (NCI protocol); format: cell-based; conditions: Homo sapiens, 48 hrs exposure
Description: as §1

PC-3 = experiment: SRB percentage growth inhibition (NCI protocol); format: cell-based; conditions: Homo sapiens, 48 hrs exposure
Description: as §1

SK-NS-H = experiment: SRB percentage growth inhibition (NCI protocol); format: cell-based; conditions: Homo sapiens, SK-N-SH, 48 hrs exposure
Description: as §1

SiHa [4] = experiment: SRB percentage growth inhibition (NCI protocol); format: cell-based; conditions: Homo sapiens, 48 hrs exposure
Description: as §1

Sw-620 = experiment: SRB percentage growth inhibition (NCI protocol); format: cell-based; conditions: Homo sapiens, 48 hrs exposure
Description: as §1

HCT-15 [5] = experiment: MTT inhibition of cell proliferation; format: cell-based; conditions: Homo sapiens, 48 h
Text: (§2) In order to determine the mode of action of cell death in cancer cells, first we explored the cytotoxic potential of different structural analogs of benzothiazoles on different human cancer cell lines. […] These compounds have limited or no cytotoxicity to cervical cancer SiHa, HeLa cells, breast cancer MCF-7 cells and colon cancer HCT-15 cells.

HL-60 = experiment: MTT inhibition of cell proliferation; format: cell-based; conditions: Homo sapiens, 48 h
Text: as §2

Hela [6] = experiment: MTT inhibition of cell proliferation; format: cell-based; conditions: Homo sapiens, 48 h
Text: as §2

MCF-7 [7] = experiment: MTT inhibition of cell proliferation; format: cell-based; conditions: Homo sapiens, MCF7, 48 h
Text: as §2

SiHa [8] = experiment: MTT inhibition of cell proliferation; format: cell-based; conditions: Homo sapiens, 48 h
Text: as §2

[9] = test system: normal monkey kidney CV-1 cells; experiment: MTT cytotoxicity in normal cells; format: cell-based; conditions: Primates
Description: These compounds were also evaluated for their cytotoxic potential in normal cells and for these purpose their IC50 value were also determine in normal monkey kidney CV-1 cells by using MTT method. The ratios of normal to cancer cells IC50 value were ranges from 10-1000 times (Table 5).

HL-60 cells = experiment: Flow cytometric analysis of reactive oxygen species (DCFH-DA); format: cell-based, human; conditions: 1 μM; for increase in DCF positive cell population (ROS): 24 h, HL-60, compared to control
Description: It was clear that these compounds were cytotoxic and induce apoptosis in HL-60 cells, now we have to found out the early events which were responsible for the induction of apoptosis like reactive oxygen species (ROS) or nitric oxide (NO) generation. Intracellular peroxide (ROS) in the cells was measured by DCFH-DA by using flow cytometry. Cells were incubated with tested compounds at 1 μM for 24 h in HL-60 cells and analyzed by flow cytometry after double staining with DCFH-DA (FIG. 7). Cells were analyzed for fluorescence intensity in FL1 vs. cell count. There was hardly any DCF fluorescence (ROS positive cells) in the untreated HL-60 cells, and this status remained unchanged when cells were incubated for 24 hr with compounds 7 and 8. […] Compounds 4 and 6 also induce the generation of peroxide in HL-60 cells (31 and 16% increase, respectively).

topoisomerase II = experiment: DNA topoisomerase-II inhibition assay; format: biochemical; conditions: 1 μM; etoposide 100 μM
Text: DNA topoisomerases are nuclear enzymes capable of resolving the topology of DNA to allow its replication. So, proper relaxing is very important for successful replication cycle and thus for the cell survival. However, topoisomerases also serve as targets in the anticancer chemotherapy in which cell death serves an important purpose. Moreover, the topoisomerase targeting drugs can either be classified either topo posions, which act by stabilizing enzyme DNA cleavable complexes leading to DNA break or topo catalytic inhibitors, which act by stabilizing enzyme where both DNA strands remain intact and no DNA breaks occur. Importantly, all the topoisomerase inhibitors finally induce apoptosis. In the present study, all the five compounds 4-8 were first subjected to topoisomerase II inhibition assay.

[10] = test system: Ehrlich Ascites Carcinoma (EAC); experiment: In vivo anticancer activity, Ehrlich ascites carcinoma; set-up: species or system Swiss mice; conditions: for No. of deaths / toxicity to animals: EAC mice
Description: Model: Ehrlich Ascites Carcinoma (EAC)
Ehrlich ascites carcinoma (EAC) cells were collected from the peritoneal cavity of the swiss mice harbouring 8-10 days old ascitic tumor. 1×10^7 EAC cells were injected intraperitoneally in Swiss mice selected for the experiment on day 0. The next day, animals were randomized and divided into different groups. The treatment groups contained 7 animals each and control group contained 10 animals. Treatment groups were treated with different doses of test substances intraperitoneally from day 1-9. One of the treatment group received 5-fluorouracil (20 mg/kg, i.p) and it served as positive control. The tumor bearing control group was similarly administered normal saline (0.2 ml, i.p.). On day 12, animals were sacrificed and ascitic fluid was collected from peritoneal cavity of each mouse for the evaluation of tumor growth. Percent tumor growth inhibition was calculated based on the total number of tumor cells present in the peritoneal cavity as on day 12 of the experiment using the following formula.

Row | SMILES | inhibition at 10 µM 502713 | inhibition at 1 µM (A549) | inhibition at 10 µM (A549) | inhibition at 1 µM (DU145) | inhibition at 10 µM (DU145) | inhibition at 1 µM (HCT-15 [1]) | inhibition at 10 µM (HCT-15 [1]) | inhibition at 1 µM (HEP-2) | inhibition at 10 µM (HEP-2) | inhibition at 1 µM (Hela [2]) | inhibition at 1 µM (IGR-OV-1) | inhibition at 1 µM (IMR-32) | inhibition at 10 µM (IMR-32) | inhibition at 1 µM (MCF-7 [3]) | inhibition at 1 µM (OVCAR-5) | inhibition at 10 µM (OVCAR-5) | inhibition at 10 µM (SK-NS-H) | inhibition at 10 µM (SiHa [4]) | inhibition at 1 µM (Sw-620) | inhibition at 10 µM (Sw-620) | other results
1 | O=C(Nc1nc2ccc([N+](=O)[O-])cc2s1)c1cccnc1Nc1ccccc1 [Compound 4, N-3-(6-Nitro-1,3-benzothiazol-2-yl)-2-(phenylamino)-3-pyridinecarboxamide] | 63% | 23% | 31% | 35% | 52% | 6% | 66% | 50% | 26% | 9% | 29% | 35% | 45% | 44% | 29% | 50% | 48% | 53% | 9% | 65% | inhibition at 1 µM (PC-3): 22%; IC50 (HCT-15 [5]): > 100 µM; IC50 (HL-60): 0.58 µM; IC50 (Hela [6]): > 100 µM; IC50 (MCF-7 [7]): > 100 µM; IC50 (SiHa [8]): 28 µM; IC50 [9]: 70 µM; increase in DCF positive cell population (ROS) (HL-60 cells): 31%; topoisomerase-II inhibition (DNA relaxation) (topoisomerase II): more potent effect relative to etoposide; Growth Inhibition (%) ([10]; 10 mg/Kg i.p. day 1-9, read day 12): 42.21%; No. of deaths / toxicity to animals ([10]; 10 mg/Kg i.p.): 2; No. of deaths / toxicity to animals ([10]; 10 mg/Kg i.p., listed as Comp 4): 2/7; Growth Inhibition (%) ([10]; 50 mg/Kg i.p. day 1-9, read day 12): Intolerable; No. of deaths / toxicity to animals ([10]; 50 mg/Kg i.p.): toxic; No. of deaths / toxicity to animals ([10]; 50 mg/Kg i.p., listed as Comp 4): 7/7
2 | CC(=O)O[C@H]1C(=O)[C@@]2(C)[C@H]([C@H](OC(=O)c3ccccc3)[C@]3(O)C[C@H](OC(=O)[C@H](O)[C@@H](NC(=O)c4ccccc4)c4ccccc4)C(C)=C1C3(C)C)[C@]1(OC(C)=O)CO[C@@H]1C[C@@H]2O [Pac, paclitaxel, reference compound] | 59% | 34% | 41% | 44% | 42% |  | 37% |  |  |  |  |  | 46% |  |  | 51% | 20% | 49% |  | 73% | 
3 | O=c1[nH]cc(F)c(=O)[nH]1 [Compound 5-FU, 5-fluorouracil, reference compound] | 21% |  |  |  |  | 46% | 44% |  |  |  |  |  | 71% |  |  | 22% | 7% | 44% | 44% | 76% | 
4 | COc1ccc(Nc2ncccc2C(=O)Nc2nc3ccc([N+](=O)[O-])cc3s2)cc1 [Compound 5, N3-(6-nitro-1,3-benzothiazol-2-yl)-2-(4-methoxyanilino)nicotinamide] | 59% | 27% | 3% | 53% | 32% | 9% | 47% | 38% | 5% | 7% | 27% | 53% | 55% | 25% | 31% | 52% | 64% | 66% | 15% | 64% | inhibition at 1 µM (PC-3): 21%; IC50 (HCT-15 [5]): > 100 µM; IC50 (HL-60): 0.7 µM; IC50 (Hela [6]): > 100 µM; IC50 (MCF-7 [7]): > 100 µM; IC50 (SiHa [8]): 28 µM; IC50 [9]: 10 µM; increase in DCF positive cell population (ROS) (HL-60 cells): ~44%; topoisomerase-II inhibition (DNA relaxation) (topoisomerase II): more potent effect relative to etoposide; Growth Inhibition (%) ([10]; 5 mg/Kg i.p. day 1-9, read day 12): 20.90%; No. of deaths / toxicity to animals ([10]; 5 mg/Kg i.p.): 0/7; Growth Inhibition (%) ([10]; 30 mg/Kg i.p. day 1-9, read day 12): Intolerable; No. of deaths / toxicity to animals ([10]; 30 mg/Kg i.p.): toxic; No. of deaths / toxicity to animals ([10]; 30 mg/Kg i.p., listed as Comp 5): 7/7
5 | O=C(Nc1nc2ccc([N+](=O)[O-])cc2s1)c1cccnc1Nc1ccc(Cl)cc1Cl [Compound 7] | 2% | 15% | 19% | 36% | 39% | 4% | 75% | 46% | 14% | 0% | 24% | 42% | 48% | 80% | 19% | 0% | 50% | 35% | 12% | 61% | inhibition at 1 µM (PC-3): 27%; IC50 (HCT-15 [5]): > 100 µM; IC50 (HL-60): 0.4 µM; IC50 (Hela [6]): > 100 µM; IC50 (MCF-7 [7]): > 100 µM; IC50 (SiHa [8]): > 50 µM; IC50 [9]: 0.8 µM; DCF fluorescence (ROS positive cells), in words (HL-60 cells; 24 hr, HL-60): unchanged; topoisomerase-II inhibition (DNA relaxation) (topoisomerase II): more potent effect relative to etoposide; Growth Inhibition (%) ([10]; 20 mg/Kg i.p. day 1-9, read day 12): 63.89%; No. of deaths / toxicity to animals ([10]; 20 mg/Kg i.p.): without any deaths; No. of deaths / toxicity to animals ([10]; 20 mg/Kg i.p., listed as Comp 7): 0/7; Growth Inhibition (%) ([10]; 40 mg/Kg i.p. day 1-9, read day 12): Intolerable; No. of deaths / toxicity to animals ([10]; 40 mg/Kg i.p.): 7/7

— US9029553B2, “2-anilino nicotinyl linked 2-amino benzothiazole conjugates and process for the preparation thereof” (Council of Scientific & Industrial Research, priority 2011, dated 2015)
